From ChEMBL document CHEMBL5465560, “Selectivity Literature for EUbOPEN Chemogenomic Library” (2024)

How the values were obtained:
[1] = target: T1, Ephrin type-B receptor 6 (Homo sapiens) (UniProt O15197); assay: Selectivity interaction (KinomeScan (DiscoverX)) EUB0000229b EPHB6; conditions: at 10 µM
T1 sequence (whole entry): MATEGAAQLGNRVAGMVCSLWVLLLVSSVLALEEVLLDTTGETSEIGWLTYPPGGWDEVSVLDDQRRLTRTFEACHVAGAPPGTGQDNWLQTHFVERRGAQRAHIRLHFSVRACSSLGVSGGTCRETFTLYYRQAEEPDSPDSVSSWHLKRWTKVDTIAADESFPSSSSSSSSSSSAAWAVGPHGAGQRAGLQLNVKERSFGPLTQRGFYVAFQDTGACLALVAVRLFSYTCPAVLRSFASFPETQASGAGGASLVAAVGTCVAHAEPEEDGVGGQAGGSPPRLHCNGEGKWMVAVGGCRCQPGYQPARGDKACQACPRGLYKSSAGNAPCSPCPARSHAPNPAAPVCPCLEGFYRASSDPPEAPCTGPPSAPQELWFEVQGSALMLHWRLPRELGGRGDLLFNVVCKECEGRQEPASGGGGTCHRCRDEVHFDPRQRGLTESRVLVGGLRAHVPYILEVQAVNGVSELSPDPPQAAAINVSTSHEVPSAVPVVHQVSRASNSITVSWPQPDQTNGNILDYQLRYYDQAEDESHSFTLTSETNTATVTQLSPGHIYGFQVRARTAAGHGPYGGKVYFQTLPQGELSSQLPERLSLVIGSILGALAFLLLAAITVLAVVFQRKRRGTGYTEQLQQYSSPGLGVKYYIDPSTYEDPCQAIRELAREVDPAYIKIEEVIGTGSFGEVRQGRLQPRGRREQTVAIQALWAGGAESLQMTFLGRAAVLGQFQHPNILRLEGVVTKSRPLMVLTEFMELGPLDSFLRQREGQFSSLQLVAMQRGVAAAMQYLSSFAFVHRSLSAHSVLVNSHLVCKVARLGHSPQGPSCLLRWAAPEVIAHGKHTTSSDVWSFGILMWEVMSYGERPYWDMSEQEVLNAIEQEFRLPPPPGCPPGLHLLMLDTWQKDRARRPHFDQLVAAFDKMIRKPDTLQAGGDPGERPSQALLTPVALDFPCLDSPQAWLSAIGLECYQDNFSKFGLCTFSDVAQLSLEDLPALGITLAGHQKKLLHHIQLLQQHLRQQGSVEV

[2] = target: Protein kinase C theta type (Homo sapiens, UniProt Q04759); assay: Selectivity interaction (KinomeScan (DiscoverX)) EUB0000229b PRKCQ; conditions: at 10 µM
[3] = target: T2, Serine/threonine-protein kinase BRSK1 (Homo sapiens) (UniProt Q8TDC3); conditions: at 10 µM
T2 sequence (whole entry): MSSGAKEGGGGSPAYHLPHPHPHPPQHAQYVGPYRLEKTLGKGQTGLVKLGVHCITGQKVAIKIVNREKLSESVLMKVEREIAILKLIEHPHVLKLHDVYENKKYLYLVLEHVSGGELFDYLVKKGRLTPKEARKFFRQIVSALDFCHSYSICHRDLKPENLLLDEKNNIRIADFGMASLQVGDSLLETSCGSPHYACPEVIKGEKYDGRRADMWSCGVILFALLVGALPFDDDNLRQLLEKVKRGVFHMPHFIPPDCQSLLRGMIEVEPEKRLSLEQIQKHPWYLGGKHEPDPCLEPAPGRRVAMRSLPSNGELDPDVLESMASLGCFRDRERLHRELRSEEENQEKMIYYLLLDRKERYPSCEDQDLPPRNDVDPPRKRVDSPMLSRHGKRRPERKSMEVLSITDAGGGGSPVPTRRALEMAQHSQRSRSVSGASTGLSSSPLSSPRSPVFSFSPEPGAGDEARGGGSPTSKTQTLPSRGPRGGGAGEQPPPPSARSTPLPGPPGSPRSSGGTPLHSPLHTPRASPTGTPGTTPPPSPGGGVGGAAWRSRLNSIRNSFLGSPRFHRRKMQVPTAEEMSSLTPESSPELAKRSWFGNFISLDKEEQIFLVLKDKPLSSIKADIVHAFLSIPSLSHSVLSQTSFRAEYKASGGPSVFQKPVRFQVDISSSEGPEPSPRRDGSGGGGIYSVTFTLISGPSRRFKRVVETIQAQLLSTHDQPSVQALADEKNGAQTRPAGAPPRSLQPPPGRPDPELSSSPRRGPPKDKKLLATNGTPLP

[4] = target: T3, Tyrosine-protein kinase TXK (Homo sapiens) (UniProt P42681); assay: Selectivity interaction (KinomeScan (DiscoverX)) EUB0001079a TXK; conditions: at 1 µM
T3 sequence (whole entry): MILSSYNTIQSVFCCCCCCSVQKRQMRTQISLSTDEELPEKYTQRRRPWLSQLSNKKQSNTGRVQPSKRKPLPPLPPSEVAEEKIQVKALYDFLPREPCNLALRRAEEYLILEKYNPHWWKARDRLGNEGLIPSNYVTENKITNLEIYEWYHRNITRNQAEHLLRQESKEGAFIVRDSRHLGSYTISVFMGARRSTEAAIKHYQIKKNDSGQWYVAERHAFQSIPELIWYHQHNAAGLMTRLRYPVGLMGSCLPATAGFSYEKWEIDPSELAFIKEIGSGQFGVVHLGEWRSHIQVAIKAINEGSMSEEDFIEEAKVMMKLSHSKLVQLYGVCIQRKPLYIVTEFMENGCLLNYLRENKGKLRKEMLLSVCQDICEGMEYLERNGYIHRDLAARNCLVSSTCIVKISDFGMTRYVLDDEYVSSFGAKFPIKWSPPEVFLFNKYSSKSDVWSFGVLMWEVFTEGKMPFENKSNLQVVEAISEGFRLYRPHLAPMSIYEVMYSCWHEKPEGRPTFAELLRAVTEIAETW

[5] = target: Serine/threonine-protein kinase PLK3 (Homo sapiens, UniProt Q9H4B4); assay: Selectivity interaction (Kinase panel (Z-LYTE Assay)) EUB0001632a PLK3; conditions: at 10 µM
[6] = target: Serine/threonine-protein kinase PAK 3 (Homo sapiens) (UniProt O75914); assay: Selectivity interaction (KinomeScan (DiscoverX)) EUB0000666a PAK3; conditions: at 10 µM
[7] = Selectivity interaction (KinomeScan (DiscoverX)) EUB0001619a CDK2H; conditions: at 1 µM
[8] = target: Protein kinase C beta type (Homo sapiens, UniProt P05771); assay: Selectivity interaction (Kinase panel (literature)) EUB0001199aCl PRKCB; conditions: at 1 µM
[9] = target: Casein kinase I isoform gamma-2 (Homo sapiens) (UniProt P78368); assay: Selectivity interaction (KinomeScan (DiscoverX)) EUB0000607a CSNK1G2; conditions: at 10 µM
[10] = target: Serine/threonine-protein kinase 10 (Homo sapiens) (UniProt O94804); assay: Selectivity interaction (ActivX KiNativ screen (kinase selectivity in THP-1 cell lysates)) EUB0000639a STK10; assay type: subcellular; conditions: lysate, at 1 µM
[11] = target: Tyrosine-protein kinase Fgr (Homo sapiens) (UniProt P09769); conditions: at 10 µM
[12] = target: MAP kinase-activated protein kinase 2 (Homo sapiens, UniProt P49137); assay: Selectivity interaction (KinomeScan (DiscoverX)) EUB0000092b MAPKAPK2; conditions: at 10 µM
Sequence of MAP kinase-activated protein kinase 2 (P49137 whole entry, looked up): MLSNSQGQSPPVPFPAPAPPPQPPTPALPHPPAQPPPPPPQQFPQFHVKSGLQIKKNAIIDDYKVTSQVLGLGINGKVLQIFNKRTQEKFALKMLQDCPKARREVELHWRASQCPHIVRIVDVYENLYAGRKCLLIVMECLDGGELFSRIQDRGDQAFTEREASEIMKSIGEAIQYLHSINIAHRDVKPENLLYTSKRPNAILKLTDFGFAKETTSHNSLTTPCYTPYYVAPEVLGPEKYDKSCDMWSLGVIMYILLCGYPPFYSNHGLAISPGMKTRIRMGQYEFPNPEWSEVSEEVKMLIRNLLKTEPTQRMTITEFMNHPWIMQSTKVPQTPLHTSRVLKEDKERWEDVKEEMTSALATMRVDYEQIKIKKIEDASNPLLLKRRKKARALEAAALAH

Sequence of Protein kinase C theta type (Q04759 whole entry, looked up): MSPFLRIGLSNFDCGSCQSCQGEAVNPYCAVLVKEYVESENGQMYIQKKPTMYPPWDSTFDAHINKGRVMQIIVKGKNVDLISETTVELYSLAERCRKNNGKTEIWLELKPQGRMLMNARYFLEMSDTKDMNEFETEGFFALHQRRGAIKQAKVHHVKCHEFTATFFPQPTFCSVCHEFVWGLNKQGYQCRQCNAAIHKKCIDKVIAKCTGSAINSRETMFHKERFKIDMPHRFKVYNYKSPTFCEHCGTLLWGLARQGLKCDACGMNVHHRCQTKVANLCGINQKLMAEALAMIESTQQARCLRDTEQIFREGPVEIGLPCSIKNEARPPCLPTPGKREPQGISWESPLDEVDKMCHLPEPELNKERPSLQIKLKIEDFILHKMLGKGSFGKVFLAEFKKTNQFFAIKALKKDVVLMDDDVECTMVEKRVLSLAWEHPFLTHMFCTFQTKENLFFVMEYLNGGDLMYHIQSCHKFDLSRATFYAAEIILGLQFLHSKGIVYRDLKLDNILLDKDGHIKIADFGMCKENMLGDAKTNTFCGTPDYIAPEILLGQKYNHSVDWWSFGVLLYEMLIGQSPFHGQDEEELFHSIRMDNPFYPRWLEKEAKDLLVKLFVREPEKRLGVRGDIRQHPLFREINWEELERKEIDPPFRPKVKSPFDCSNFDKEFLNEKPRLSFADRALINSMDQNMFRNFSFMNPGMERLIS
Sequence of Tyrosine-protein kinase Fgr (Homo sapiens) (P09769 2-529 limits assumed): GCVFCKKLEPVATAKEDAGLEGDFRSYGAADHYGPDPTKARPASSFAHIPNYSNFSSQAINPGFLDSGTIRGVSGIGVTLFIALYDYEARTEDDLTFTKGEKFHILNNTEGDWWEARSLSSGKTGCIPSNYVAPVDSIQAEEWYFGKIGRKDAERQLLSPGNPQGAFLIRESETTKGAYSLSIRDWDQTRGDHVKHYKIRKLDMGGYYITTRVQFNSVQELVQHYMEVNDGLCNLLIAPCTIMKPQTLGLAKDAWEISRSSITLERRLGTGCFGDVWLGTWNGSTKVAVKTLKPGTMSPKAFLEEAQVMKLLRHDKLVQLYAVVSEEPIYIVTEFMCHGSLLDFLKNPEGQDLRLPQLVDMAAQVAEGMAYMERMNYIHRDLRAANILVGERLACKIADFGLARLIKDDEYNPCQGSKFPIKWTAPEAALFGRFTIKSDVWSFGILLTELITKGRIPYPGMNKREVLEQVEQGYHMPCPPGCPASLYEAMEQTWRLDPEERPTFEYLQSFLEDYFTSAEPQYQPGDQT
Sequence of Protein kinase C beta type (P05771 2-671 limits assumed): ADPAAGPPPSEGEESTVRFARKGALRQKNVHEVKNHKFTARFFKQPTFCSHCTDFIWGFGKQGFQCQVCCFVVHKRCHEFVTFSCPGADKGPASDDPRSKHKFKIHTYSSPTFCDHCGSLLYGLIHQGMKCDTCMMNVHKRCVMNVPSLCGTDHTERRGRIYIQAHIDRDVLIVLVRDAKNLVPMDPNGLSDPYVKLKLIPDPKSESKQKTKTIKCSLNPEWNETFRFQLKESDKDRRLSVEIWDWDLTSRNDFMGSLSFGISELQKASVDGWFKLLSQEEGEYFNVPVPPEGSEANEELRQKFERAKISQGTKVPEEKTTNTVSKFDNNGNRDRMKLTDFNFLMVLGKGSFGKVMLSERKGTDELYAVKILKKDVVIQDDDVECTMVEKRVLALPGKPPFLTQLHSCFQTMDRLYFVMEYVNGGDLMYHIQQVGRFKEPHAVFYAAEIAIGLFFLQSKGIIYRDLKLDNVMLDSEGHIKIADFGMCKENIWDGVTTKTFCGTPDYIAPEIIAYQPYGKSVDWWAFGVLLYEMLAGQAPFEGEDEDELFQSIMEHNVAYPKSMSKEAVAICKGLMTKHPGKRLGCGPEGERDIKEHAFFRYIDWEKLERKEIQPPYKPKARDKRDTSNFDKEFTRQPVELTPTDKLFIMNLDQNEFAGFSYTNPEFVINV
Sequence of Casein kinase I isoform gamma-2 (Homo sapiens) (P78368 whole entry, looked up, canonical isoform): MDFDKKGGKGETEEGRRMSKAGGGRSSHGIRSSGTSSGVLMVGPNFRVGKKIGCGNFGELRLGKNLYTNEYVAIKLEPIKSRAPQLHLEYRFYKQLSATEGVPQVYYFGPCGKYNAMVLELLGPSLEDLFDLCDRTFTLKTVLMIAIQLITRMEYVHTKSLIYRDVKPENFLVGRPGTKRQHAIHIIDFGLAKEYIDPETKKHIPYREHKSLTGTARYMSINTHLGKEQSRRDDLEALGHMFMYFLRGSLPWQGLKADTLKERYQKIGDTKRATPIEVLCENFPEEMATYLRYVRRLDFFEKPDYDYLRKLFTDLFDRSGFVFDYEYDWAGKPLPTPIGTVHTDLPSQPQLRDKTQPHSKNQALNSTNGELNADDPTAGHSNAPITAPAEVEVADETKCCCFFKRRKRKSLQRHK
Sequence of Serine/threonine-protein kinase PAK 3 (Homo sapiens) (O75914 whole entry, looked up): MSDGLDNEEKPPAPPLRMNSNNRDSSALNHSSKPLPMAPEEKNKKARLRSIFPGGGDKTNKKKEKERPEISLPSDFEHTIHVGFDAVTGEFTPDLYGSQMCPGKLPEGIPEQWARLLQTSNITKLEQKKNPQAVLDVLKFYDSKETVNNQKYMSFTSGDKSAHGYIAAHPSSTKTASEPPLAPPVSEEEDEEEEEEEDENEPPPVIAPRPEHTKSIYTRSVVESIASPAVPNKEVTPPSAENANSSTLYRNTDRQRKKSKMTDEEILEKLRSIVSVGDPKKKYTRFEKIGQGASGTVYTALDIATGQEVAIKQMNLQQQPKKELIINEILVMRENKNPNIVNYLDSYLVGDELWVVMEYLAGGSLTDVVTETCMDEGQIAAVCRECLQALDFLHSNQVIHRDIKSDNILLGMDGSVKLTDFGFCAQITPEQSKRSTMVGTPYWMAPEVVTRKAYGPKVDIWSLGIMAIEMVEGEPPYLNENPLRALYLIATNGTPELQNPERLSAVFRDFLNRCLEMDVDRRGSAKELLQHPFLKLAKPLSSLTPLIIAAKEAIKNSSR
Sequence of Serine/threonine-protein kinase PLK3 (Q9H4B4 whole entry, looked up): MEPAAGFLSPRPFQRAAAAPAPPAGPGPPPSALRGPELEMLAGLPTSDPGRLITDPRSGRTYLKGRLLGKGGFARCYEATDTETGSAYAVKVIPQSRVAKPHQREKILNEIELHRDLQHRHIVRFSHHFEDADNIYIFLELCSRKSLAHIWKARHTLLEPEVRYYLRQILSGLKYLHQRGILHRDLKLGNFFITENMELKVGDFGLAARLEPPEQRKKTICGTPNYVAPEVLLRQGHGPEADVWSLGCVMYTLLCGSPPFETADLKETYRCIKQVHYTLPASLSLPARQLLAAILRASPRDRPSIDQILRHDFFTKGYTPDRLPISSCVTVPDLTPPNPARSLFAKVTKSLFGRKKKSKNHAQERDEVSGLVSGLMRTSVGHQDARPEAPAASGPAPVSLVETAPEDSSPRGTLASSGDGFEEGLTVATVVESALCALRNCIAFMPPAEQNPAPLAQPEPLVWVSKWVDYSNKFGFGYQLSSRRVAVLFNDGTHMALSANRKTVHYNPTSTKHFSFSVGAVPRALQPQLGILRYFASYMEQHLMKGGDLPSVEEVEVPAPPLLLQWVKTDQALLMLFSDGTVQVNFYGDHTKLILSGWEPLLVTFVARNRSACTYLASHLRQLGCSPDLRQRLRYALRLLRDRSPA
Sequence of Serine/threonine-protein kinase 10 (Homo sapiens) (O94804 whole entry, looked up): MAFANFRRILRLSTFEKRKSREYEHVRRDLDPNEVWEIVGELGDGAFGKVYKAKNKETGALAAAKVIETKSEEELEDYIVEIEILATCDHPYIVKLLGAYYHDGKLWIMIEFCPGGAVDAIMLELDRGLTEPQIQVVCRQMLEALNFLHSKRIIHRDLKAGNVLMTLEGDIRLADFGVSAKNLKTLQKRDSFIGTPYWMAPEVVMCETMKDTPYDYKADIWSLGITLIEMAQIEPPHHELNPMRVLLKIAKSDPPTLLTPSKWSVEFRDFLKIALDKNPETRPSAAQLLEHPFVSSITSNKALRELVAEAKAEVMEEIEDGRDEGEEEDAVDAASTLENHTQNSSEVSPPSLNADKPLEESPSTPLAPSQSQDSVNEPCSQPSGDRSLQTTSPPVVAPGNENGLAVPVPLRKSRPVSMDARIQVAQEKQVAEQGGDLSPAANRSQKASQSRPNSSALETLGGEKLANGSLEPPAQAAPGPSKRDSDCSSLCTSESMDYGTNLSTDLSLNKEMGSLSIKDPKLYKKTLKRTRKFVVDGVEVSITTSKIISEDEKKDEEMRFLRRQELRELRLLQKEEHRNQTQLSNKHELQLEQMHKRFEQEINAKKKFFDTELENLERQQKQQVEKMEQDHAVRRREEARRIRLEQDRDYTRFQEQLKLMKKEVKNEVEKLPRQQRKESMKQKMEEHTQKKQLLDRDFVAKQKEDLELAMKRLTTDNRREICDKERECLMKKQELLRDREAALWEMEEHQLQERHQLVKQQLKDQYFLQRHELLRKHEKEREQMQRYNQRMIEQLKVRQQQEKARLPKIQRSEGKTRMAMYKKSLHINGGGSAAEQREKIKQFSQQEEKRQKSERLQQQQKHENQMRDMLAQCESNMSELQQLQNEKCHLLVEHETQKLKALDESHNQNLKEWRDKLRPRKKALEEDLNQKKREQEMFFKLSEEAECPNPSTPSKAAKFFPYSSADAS

With `COc1cc(N(C)c2ccnc3ccc(C(F)(F)F)cc23)cc(OC)c1OC` the % binding [1] was 81% and the % binding [2] was 66%.

In the case of `COCC(=O)NC/C=C/c1ccc2ncnc(Nc3ccc(Oc4ccc(C)nc4)c(C)c3)c2c1` [CP-724714], the % of control [3] is reported as 100%.

Molecule `Nc1cnc(N2CCc3cc(S(=O)(=O)Nc4c(F)cc(Cl)cc4F)cc(N4CCCC4=O)c32)nc1` [TP-020n] has a % of control [4] of 83%.

Work on `Cn1cc(-n2cnc3c(NCc4nc5cc(Cl)c(Cl)cc5[nH]4)nc(N4CCOCC4)nc32)cn1` yielded a % of control [5] of 0.242%.

Work on `O=C(NOC[C@H](O)CO)c1ccc(F)c(F)c1Nc1ccc(I)cc1F` yielded a % of control [6] of 100%.

In the case of `N#Cc1cccc(-c2c[nH]c3ncnc(N4CCOCC4)c23)c1`, the % of control [7] is reported as 100%.

Molecule `CN1Cc2nccc(-c3cn(C)nc3-c3ccc(F)cc3)c2C1=O` has a % of inhibition [8] of -2%.

In the case of `CNC(=O)Nc1ccc(-c2nc(N3CC4CCC(C3)O4)c3cnn(C4CCC5(CC4)OCCO5)c3n2)cc1`, the % of control [9] is reported as 95%.

`CC[C@@H]1[C@H](F)C(=O)N[C@@H]1COc1nccc2cc(C(N)=O)c(OC)cc12` [ZIMLOVISERTIB] showed a % of inhibition [10] of -15.7%.

With `CCN(CC)CCCCNc1ncc2cc(-c3cc(OC)cc(OC)c3)c(NC(=O)NC(C)(C)C)nc2n1` the % of control [11] was 100%.

`CCC(=O)N1CCN(c2ccc(-n3c(=O)ccc4cnc5ccc(-c6cnc7ccccc7c6)cc5c43)cc2C(F)(F)F)CC1` showed a % of control [12] of 100%.
